pIC50: −log10 of the molar value.
How the values were obtained:
[1] = target: Mitogen-activated protein kinase 8 (Homo sapiens) (UniProt P45983); settings: Compound concentration 100.0 nM
[2] = target: T1, Serine/threonine-protein kinase Sgk1 (Homo sapiens) (UniProt O00141); settings: Compound concentration 100.0 nM
T1 sequence (whole entry): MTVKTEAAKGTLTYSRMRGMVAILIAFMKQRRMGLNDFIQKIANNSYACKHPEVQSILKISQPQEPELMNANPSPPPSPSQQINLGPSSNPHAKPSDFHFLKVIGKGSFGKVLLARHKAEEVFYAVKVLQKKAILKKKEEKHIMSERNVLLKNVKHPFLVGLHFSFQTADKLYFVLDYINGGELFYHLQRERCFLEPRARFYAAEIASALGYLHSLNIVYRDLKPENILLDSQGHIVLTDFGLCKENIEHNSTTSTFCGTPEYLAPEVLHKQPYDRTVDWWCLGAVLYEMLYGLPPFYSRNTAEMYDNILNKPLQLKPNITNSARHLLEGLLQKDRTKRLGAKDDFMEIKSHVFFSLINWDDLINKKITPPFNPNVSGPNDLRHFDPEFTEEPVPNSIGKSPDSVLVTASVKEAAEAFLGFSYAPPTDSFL

[3] = target: MAP/microtubule affinity-regulating kinase 3 (Homo sapiens) (UniProt P27448); settings: Compound concentration 100.0 nM
MAP/microtubule affinity-regulating kinase 3 (Homo sapiens), sequence (P27448 whole entry, looked up): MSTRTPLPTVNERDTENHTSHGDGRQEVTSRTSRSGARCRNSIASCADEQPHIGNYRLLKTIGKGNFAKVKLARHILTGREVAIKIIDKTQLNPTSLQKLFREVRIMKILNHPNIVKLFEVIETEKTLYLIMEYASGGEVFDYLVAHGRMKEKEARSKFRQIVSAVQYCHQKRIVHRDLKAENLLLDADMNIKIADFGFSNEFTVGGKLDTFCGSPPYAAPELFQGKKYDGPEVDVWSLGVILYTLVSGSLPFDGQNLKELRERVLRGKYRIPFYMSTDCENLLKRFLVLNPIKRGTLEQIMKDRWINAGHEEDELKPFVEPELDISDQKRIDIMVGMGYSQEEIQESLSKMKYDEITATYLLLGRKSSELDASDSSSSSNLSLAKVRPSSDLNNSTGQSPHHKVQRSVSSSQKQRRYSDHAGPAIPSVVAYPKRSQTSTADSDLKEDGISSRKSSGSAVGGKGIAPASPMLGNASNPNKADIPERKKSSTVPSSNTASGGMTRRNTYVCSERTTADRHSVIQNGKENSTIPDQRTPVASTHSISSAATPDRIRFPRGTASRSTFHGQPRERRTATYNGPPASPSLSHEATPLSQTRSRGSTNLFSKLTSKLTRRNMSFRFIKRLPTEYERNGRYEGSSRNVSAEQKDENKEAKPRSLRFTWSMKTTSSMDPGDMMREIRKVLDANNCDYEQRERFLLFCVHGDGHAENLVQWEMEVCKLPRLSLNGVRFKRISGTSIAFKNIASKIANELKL

[4] = target: Mitogen-activated protein kinase 10 (Homo sapiens) (UniProt P53779); settings: Compound concentration 100.0 nM
Mitogen-activated protein kinase 10 (Homo sapiens), sequence (P53779 whole entry): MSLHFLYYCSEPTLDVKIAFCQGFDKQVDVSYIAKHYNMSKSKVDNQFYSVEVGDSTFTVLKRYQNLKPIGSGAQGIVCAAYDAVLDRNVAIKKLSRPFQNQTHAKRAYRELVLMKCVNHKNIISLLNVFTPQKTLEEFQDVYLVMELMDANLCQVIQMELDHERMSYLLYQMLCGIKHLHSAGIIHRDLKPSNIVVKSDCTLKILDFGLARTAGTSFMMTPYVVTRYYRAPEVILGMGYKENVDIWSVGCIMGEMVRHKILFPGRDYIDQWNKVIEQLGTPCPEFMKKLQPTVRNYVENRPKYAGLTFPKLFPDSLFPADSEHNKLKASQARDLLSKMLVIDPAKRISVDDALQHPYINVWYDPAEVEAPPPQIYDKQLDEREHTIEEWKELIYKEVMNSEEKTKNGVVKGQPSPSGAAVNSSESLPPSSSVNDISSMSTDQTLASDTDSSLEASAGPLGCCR

[5] = target: Dual specificity mitogen-activated protein kinase kinase 5 (Homo sapiens) (UniProt Q13163); settings: Compound concentration 100.0 nM
[6] = target: Calcium/calmodulin-dependent protein kinase type II subunit beta (Homo sapiens) (UniProt Q13554); settings: Compound concentration 100.0 nM
[7] = target: Protein-tyrosine kinase 6 (Homo sapiens) (UniProt Q13882); settings: Compound concentration 100.0 nM
[8] = target: Alpha-2C adrenergic receptor (Homo sapiens) (UniProt P18825); settings: Compound concentration 10.0 uM
[9] = target: Serine/threonine-protein kinase PknB (Mycobacterium tuberculosis) (UniProt P9WI81); settings: Compound concentration 100.0 nM
[10] = target: Ephrin type-A receptor 4 (Homo sapiens) (UniProt P54764); settings: Compound concentration 100.0 nM
Ephrin type-A receptor 4 (Homo sapiens), sequence (P54764 whole entry): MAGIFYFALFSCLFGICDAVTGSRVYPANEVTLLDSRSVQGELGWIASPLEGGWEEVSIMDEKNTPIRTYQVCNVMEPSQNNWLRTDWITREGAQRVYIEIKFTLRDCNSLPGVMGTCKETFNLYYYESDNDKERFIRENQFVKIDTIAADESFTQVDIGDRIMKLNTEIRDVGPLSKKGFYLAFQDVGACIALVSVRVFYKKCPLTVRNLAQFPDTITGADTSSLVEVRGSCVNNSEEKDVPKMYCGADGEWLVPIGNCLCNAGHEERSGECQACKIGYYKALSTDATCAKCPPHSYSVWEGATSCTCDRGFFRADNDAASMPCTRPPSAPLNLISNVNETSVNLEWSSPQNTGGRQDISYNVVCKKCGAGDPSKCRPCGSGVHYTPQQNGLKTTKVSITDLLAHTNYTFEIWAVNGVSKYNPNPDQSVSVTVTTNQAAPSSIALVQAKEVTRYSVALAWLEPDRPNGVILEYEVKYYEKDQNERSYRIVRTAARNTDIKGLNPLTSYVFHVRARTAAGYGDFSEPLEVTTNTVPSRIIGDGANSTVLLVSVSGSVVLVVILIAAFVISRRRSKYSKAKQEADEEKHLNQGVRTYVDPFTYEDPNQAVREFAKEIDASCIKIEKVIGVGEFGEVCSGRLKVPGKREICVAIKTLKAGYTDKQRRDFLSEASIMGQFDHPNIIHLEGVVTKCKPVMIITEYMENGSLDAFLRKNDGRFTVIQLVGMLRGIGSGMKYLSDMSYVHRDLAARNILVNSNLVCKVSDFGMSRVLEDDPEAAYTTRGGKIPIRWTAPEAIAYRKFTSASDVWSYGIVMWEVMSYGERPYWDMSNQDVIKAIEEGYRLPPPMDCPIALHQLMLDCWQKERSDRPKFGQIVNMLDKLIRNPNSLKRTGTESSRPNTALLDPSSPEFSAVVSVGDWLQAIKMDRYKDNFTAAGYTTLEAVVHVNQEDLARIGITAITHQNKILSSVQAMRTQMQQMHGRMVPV

[11] = target: Serine/threonine-protein kinase pim-3 (Homo sapiens) (UniProt Q86V86); settings: Compound concentration 100.0 nM
[12] = target: 5-hydroxytryptamine receptor 2B (Homo sapiens) (UniProt P41595); settings: Compound concentration 10.0 uM
5-hydroxytryptamine receptor 2B (Homo sapiens), sequence (P41595 whole entry): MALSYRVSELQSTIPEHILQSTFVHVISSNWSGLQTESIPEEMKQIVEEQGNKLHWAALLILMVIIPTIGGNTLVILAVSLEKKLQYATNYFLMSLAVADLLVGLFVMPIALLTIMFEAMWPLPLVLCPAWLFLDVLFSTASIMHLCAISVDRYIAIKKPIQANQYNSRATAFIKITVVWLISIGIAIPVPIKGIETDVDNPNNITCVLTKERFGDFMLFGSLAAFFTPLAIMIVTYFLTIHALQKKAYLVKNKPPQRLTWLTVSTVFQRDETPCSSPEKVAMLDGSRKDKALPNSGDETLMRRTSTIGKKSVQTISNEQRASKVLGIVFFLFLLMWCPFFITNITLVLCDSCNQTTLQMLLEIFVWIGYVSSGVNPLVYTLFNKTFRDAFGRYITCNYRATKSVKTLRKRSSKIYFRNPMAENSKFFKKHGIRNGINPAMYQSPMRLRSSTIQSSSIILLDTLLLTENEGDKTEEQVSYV

[13] = target: Cyclin-dependent kinase 19 (Homo sapiens) (UniProt Q9BWU1); settings: Compound concentration 100.0 nM
[14] = target: Myosin-IIIb (Homo sapiens) (UniProt Q8WXR4); settings: Compound concentration 100.0 nM
Myosin-IIIb (Homo sapiens), sequence (Q8WXR4 whole entry): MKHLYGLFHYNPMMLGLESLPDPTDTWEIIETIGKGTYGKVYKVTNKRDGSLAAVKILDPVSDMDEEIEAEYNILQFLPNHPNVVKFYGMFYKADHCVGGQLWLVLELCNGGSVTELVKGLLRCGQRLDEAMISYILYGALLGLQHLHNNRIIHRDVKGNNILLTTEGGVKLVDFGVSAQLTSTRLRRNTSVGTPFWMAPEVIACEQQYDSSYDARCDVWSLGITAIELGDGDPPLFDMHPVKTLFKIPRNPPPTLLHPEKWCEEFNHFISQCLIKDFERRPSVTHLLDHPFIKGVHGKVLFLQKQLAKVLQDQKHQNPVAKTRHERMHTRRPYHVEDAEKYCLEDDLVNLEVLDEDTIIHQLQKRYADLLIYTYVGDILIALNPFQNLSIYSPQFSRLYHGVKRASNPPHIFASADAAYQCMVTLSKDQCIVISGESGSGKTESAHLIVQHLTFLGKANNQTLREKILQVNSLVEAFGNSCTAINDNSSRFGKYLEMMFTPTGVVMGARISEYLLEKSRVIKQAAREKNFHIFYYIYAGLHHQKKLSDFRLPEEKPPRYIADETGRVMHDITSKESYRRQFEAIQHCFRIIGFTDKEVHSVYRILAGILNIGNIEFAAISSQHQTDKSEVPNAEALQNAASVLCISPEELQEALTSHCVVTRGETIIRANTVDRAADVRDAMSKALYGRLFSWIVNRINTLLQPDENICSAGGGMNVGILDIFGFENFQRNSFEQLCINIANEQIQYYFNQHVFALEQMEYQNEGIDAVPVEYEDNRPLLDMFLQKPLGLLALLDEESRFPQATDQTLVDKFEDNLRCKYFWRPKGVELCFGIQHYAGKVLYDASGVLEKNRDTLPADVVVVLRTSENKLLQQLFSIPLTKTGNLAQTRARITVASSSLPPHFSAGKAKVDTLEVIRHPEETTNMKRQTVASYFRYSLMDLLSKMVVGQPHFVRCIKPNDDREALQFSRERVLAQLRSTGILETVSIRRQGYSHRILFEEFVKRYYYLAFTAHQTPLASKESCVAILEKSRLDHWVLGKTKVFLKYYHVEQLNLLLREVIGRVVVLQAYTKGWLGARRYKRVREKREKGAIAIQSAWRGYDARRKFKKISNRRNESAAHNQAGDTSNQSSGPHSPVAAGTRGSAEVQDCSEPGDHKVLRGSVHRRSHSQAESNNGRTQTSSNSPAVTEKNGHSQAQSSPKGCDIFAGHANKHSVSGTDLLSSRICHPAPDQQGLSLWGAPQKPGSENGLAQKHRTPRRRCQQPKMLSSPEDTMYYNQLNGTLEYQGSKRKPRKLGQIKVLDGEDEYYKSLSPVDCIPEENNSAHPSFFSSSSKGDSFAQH

[15] = target: Cyclin-dependent kinase 2/cyclin E (Homo sapiens) (UniProt P24864+P24941+O96020); experiment: CDK2/ cyclin E (h) Upstate kinase activity assay; assay type: protein-complex assay; settings: Compound concentration 10.0 uM
[16] = tested on: A-431; experiment: Skin A431 cell line MDS Pharma Services Proliferation Assay; assay type: functional, cell-based, Homo sapiens
[17] = tested on: HC-4; experiment: Liver HC-4 cell line MDS Pharma Services Proliferation Assay; assay type: functional, cell-based, Homo sapiens
[18] = target: Casein kinase II subunit alpha (Homo sapiens) (UniProt P68400); experiment: CK2 (h) Upstate kinase activity assay; settings: Compound concentration 10.0 uM
[19] = tested on: HepG2; experiment: Liver HepG2 cell line MDS Pharma Services Proliferation Assay; assay type: functional, cell-based, Homo sapiens
[20] = target: D(3) dopamine receptor (Homo sapiens) (UniProt P35462); settings: Compound concentration 10.0 uM
[21] = target: T2, Serine/threonine-protein kinase Nek2 (Homo sapiens) (UniProt P51955); experiment: NEK2 (h) Upstate kinase activity assay; settings: Compound concentration 10.0 uM
T2 sequence (whole entry): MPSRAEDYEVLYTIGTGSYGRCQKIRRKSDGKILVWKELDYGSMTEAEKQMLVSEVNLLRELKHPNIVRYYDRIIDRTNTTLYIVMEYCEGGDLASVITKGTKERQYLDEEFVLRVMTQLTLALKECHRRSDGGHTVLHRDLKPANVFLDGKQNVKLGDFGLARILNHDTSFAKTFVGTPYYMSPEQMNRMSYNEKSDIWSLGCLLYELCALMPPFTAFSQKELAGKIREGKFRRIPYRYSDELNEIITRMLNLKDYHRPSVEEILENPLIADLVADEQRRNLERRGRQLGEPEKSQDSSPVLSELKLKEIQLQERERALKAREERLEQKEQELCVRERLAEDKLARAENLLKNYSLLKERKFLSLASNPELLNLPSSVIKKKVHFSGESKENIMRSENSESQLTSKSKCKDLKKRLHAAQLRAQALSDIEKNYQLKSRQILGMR

[22] = target: T3, Serine/threonine-protein kinase 3 (Homo sapiens) (UniProt Q13188); experiment: MST2 (h) Upstate kinase activity assay; settings: Compound concentration 10.0 uM
T3 sequence (whole entry): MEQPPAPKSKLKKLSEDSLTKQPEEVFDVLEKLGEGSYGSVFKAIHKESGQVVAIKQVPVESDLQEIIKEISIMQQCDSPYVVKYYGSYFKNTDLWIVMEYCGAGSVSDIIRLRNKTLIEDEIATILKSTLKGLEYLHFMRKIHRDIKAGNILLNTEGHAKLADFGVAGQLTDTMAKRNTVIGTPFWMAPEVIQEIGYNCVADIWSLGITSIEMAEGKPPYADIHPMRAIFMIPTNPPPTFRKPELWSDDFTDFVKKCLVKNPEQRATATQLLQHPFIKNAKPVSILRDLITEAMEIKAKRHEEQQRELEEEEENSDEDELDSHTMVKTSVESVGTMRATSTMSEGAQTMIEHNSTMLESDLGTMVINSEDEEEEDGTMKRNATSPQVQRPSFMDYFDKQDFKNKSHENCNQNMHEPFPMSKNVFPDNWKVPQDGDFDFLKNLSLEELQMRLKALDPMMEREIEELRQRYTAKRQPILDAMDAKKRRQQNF

[23] = target: Sigma intracellular receptor 2 (Homo sapiens) (UniProt Q5BJF2); settings: Compound concentration 10.0 uM
Sigma intracellular receptor 2 (Homo sapiens), sequence (Q5BJF2 whole entry): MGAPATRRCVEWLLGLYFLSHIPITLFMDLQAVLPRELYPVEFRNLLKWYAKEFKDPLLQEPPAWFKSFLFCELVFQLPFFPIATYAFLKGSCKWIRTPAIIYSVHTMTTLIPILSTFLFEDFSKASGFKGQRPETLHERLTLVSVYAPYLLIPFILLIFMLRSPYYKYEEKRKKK

Mitogen-activated protein kinase 8 (Homo sapiens), sequence (P45983 whole entry): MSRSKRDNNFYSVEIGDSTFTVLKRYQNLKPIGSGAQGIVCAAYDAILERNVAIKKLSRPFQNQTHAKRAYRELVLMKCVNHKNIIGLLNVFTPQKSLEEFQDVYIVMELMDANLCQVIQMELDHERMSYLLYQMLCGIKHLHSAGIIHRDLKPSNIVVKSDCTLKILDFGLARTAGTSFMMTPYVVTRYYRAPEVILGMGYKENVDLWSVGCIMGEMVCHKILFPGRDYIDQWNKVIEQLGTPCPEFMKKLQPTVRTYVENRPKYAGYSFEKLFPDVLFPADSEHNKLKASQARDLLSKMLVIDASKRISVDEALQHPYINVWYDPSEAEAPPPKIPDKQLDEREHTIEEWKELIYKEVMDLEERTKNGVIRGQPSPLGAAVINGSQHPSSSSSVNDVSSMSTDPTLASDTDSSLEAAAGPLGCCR

With `Cn1cc(Cl)c2c(Oc3c(F)cc(Nc4cc(Cl)nc(N)n4)cc3F)ccnc21` [BAY-4900] the residual activity [1] was 76%, the residual activity [2] was 80% and the residual activity [3] was 83%. The residual activity [4] was 80%, the residual activity [5] was 100% and the residual activity [6] was 100%. For the same compound, the residual activity [7] was 86%, the inhibition [8] was -6.8% and the residual activity [9] was 100%. For the same compound, the residual activity [10] was 100%, the residual activity [11] was 100% and the inhibition [12] was 17.3%. The residual activity [13] was 88% and the residual activity [14] was 57%.
For `Cc1c[nH]c2nccc(Oc3c(F)cc(Nc4cc(Cl)nc(N)n4)cc3F)c12` [BAY-549], the residual activity [1] was 80%, the residual activity [2] was 74% and the residual activity [3] was 74%. For the same compound, the residual activity [4] was 81%, the residual activity [5] was 82% and the inhibition [15] was 40%. The residual activity [7] was 100%, the pIC50 ([16]; Homo sapiens, A-431) was 5.26 and the TGI ([16]; Homo sapiens, A-431) was 31 µM. For the same compound, the CC50 ([16]; Homo sapiens, A-431, read-out: LC50 (the source's name)) was over 100 µM, the “Mean % growth (n = 2) for 1.0 µM probe concentration” value ([16]; ± SEM 3 % growth) was 77% and the “Mean % growth (n = 2) for 10.0 µM probe concentration” value ([16]; ± SEM 3 % growth) was 35%. The “Mean % growth (n = 2) for 100.0 µM probe concentration” value ([16]; ± SEM 5 % growth) was -36%, the “Mean % growth (n = 2) for 0.1 µM probe concentration” value ([16]; ± SEM 6 % growth) was 103% and the “Mean % growth (n = 2) for 0.01 µM probe concentration” value ([16]; ± SEM 9 % growth) was 92%. For the same compound, the pIC50 ([17]; Homo sapiens, HC-4) was 5.68, the TGI ([17]; Homo sapiens, HC-4) was 13 µM and the CC50 ([17]; Homo sapiens, HC-4, read-out: LC50 (the source's name)) was 82 µM. For the same compound, the “Mean % growth (n = 2) for 0.1 µM probe concentration” value ([17]; ± SEM 1 % growth) was 94%, the “Mean % growth (n = 2) for 0.01 µM probe concentration” value ([17]; ± SEM 5 % growth) was 102% and the “Mean % growth (n = 2) for 1.0 µM probe concentration” value ([17]; ± SEM 5 % growth) was 59%. For the same compound, the “Mean % growth (n = 2) for 10.0 µM probe concentration” value ([17]; ± SEM 8 % growth) was 12%, the “Mean % growth (n = 2) for 100.0 µM probe concentration” value ([17]; ± SEM 8 % growth) was -56% and the inhibition [18] was 6%. For the same compound, the pIC50 ([19]; Homo sapiens, HepG2) was 5.51, the TGI ([19]; Homo sapiens, HepG2) was 54 µM and the CC50 ([19]; Homo sapiens, HepG2, read-out: LC50 (the source's name)) was over 100 µM. The “Mean % growth (n = 2) for 1.0 µM probe concentration” value ([19]; ± SEM 2 % growth) was 62%, the “Mean % growth (n = 2) for 0.01 µM probe concentration” value ([19]; ± SEM 4 % growth) was 101% and the “Mean % growth (n = 2) for 10.0 µM probe concentration” value ([19]; ± SEM 4 % growth) was 18%. The “Mean % growth (n = 2) for 0.1 µM probe concentration” value ([19]; ± SEM 6 % growth) was 95%, the “Mean % growth (n = 2) for 100.0 µM probe concentration” value ([19]; ± SEM 6 % growth) was -3% and the residual activity [9] was 98%. It also gave an inhibition [20] of -5.8%, a residual activity [10] of 100% and a residual activity [11] of 100%. The inhibition [21] was 19%, the inhibition [22] was 59% and the inhibition [23] was 31.9%. For the same compound, the inhibition [12] was 10.4%, the residual activity [13] was 80% and the residual activity [14] was 91%.

Source: ChEMBL document CHEMBL4507274 (2021)
